Reference: US20230106506A1, “NOVEL PqsR INVERSE AGONISTS” (Helmholtz-Zentrum Fur Infektionsforschung GmbH, priority 2020, published 2023)

Experiments:
[1] = Kinetic turbidimetric aqueous solubility; type: physicochemical; conditions: aqueous buffer, kinetic from dmso stock; PBS buffer, final DMSO 2%, absorbance 620 nm; read-out: Kinetic Turbidimetric Aqueous Solubility at room temperature for 5 min
Experimental: Kinetic Turbidimetric Aqueous Solubility at room temperature for 5 min. […] Data was analyzed by fitting a four parameter sigmoidal function to the measured and normalized absorbances and AUC calculation providing access to Log S (decadic logarithm of the solubility).

PqsR = target: T1, PqsR (Pseudomonas aeruginosa, UniProt Q9I4X0); experiment: PqsR reporter gene assay in E. coli (β-galactosidase); type: cell-based
T1 construct: transfected with pEAL08-2 plasmid encoding pqsR under control of promoter tac; expressed in transfected cells; host or cells: Escherichia coli DH5alpha carrying pEAL08-2
Experimental: Inhibition of pqsR-dependent gene expression of test compounds was determined in an E. coli based β-galactosidase reporter gene assay. Escherichia coli DH5α was transfected with pEAL08-2 plasmid encoding pqsR under control of promoter tac and β-galactosidase reporter gene lacZ under control of promoter pqsA. Antagonistic effects of compounds were evaluated in the presence of/in competition to 50 nM PQS. A positive control was used to ensure the reliability of individual assays. First, PQS was diluted in methanol and added to the wells of a glass coated 96-deep-well plate, and the solvent was evaporated. Then, compounds were added in 5 μL DMSO to final concentrations of 0.001-10 μM. Overnight cultures of E. coli DH5a×pEAL08-2 were diluted 1:100 in LB medium with ampicillin (50 μg/ml) and incubated at 37° C. with shaking until it reached an OD600 of 0.2. Finally, 995 μL of culture was added to each well and the β-galactosidase activity was determined by ortho-nitrophenyl-β-galactoside conversion in permeabilized cells after a 2.5 h incubation period (37° C., 180 rpm). OD600, OD420, and OD550 were measured using POLARstar Omega (BMG Labtech, Ortenberg, Germany), and the activity was expressed as ratio of the slope of β-galactosidase activity between basal control (no PQS) and solvent control, IC50 values of antagonists were determined by variation of the concentration of the test compounds.

[2] = system: P. aeruginosa pyocyanin production; experiment: Pyocyanin assay; type: cell-based, P. aeruginosa strain PA14; conditions: Pseudomonas aeruginosa, PA14, 16 h, read-out: IC50-value towards pyocyanin production
Experimental: Inhibition of P. aeruginosa pyocyanin production by compounds was determined photometrically as described before. In short, an overnight culture of PA14 in PPGAS medium was washed, diluted in medium to a start OD600 of 0.02, and incubated for 16 h (37° C., 200 rpm, relative humidity 75%) in the presence of test compounds. Then, cultures were extracted with chloroform and re-extracted with 0.2 M HCl. Protonated red colored pyocyanin was determined by measuring OD520 and normalizing to OD600.

[3] = Metabolic stability in mouse liver microsomes (MLM); type: in vitro ADME; conditions: 1 μM compound, 0.5 mg/mL MLM, 1 mM NADPH, 37° C., read-out: half-life (t1/2) towards MLM
Experimental: For the evaluation of phase I metabolic stability, the compound (1 μM) was incubated with 0.5 mg/mL MLM (Corning) and 1 mM NADPH at 37° C. for 0, 5, 10, 15 and 30 min. The metabolic stability of Verapamil, Diphenhydramine and Benzydamine (1 μM each) were determined in parallel to confirm the enzymatic activity of the MLM. The incubation was stopped by addition of 2 volumes of acetonitrile containing internal standard (1 μM Leucine Enkephaline). Samples were centrifuged (15 min, 3,500 rpm). Concentration of the remaining test compound at the different time points was analyzed by HPLC-MS/MS and used to determine half-life (t1/2).

T1 sequence (Q9I4X0 whole entry): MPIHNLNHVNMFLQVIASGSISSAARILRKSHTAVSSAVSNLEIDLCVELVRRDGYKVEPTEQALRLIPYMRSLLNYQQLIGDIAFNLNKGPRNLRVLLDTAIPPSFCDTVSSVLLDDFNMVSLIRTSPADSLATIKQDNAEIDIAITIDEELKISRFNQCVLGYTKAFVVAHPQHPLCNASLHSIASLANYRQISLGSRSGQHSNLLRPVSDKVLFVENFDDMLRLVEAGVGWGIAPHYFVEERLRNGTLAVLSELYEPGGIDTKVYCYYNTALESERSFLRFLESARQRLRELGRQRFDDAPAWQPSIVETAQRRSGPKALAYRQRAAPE

In the case of `FC(F)(F)c1cc(NCc2cn(-c3ccc(Oc4ccccc4)cc3)nn2)cc(-c2cn[nH]c2)n1` [Compound 01], the solubility at 5 min [1] is reported as over 25 µM, the IC50 (PqsR) is reported as 51 to 250 nM and the IC50 [2] is reported as 101 to 200 nM.
For `FC(F)(F)c1cc(NCc2cn(-c3ccc(Oc4ccccc4)cc3)nn2)cc(-n2ccnc2)n1` [Compound 02, 2-(1H-Imidazol-1-yl)-N-((1-(4-phenoxyphenyl)-1H-1,2,3-triazol-4-yl)methyl)-6-(trifluoromethyl)pyridin-4-amine], the solubility at 5 min [1] was over 25 µM, the IC50 (PqsR) was at most 50 nM and the IC50 [2] was 201 to 500 nM.
`FC(F)(F)c1cc(NCc2cn(-c3ccc(Oc4ccccc4)cc3)nn2)cc(-n2cncn2)n1` [Compound 03, N-((1-(4-Phenoxyphenyl)-1H-1,2,3-triazol-4-yl)methyl)-2-(1H-1,2,4-triazol-1-yl)-6-(trifluoromethyl)pyridin-4-amine] showed a solubility at 5 min [1] of over 25 µM, a half-life at 1 µM [3] of 1.02 to 1.67 h and an IC50 (PqsR) of at most 50 nM. The IC50 [2] was 201 to 500 nM.
In the case of `Fc1ccccc1Oc1ccc(-n2cc(CNc3cc(-c4cn[nH]c4)nc(C(F)(F)F)c3)nn2)cc1` [Compound 04, N-((1-(4-(2-Fluorophenoxy)phenyl)-1H-1,2,3-triazol-4-yl)methyl)-2-(1H-pyrazol-4-yl)-6-(trifluoromethyl)pyridin-4-amine], the solubility at 5 min [1] is reported as over 10 µM, the half-life at 1 µM [3] is reported as 0.5 to 1 h and the IC50 (PqsR) is reported as at most 50 nM. It also gave an IC50 [2] of 101 to 200 nM.
With `CC(C)Oc1ccc(-n2cc(CNc3cc(Cl)nc(-c4cn[nH]c4)c3)nn2)cc1Cl` [Compound 08, 2-Chloro-N-((1-(3-chloro-4-isopropoxyphenyl)-1H-1,2,3-triazol-4-yl)methyl)-6-(1H-pyrazol-4-yl)pyridin-4-amine] the solubility at 5 min [1] was over 25 µM, the IC50 (PqsR) was at most 50 nM and the IC50 [2] was 201 to 500 nM.
`CC(C)Oc1ccc(-n2cc(CNc3cc(C#N)nc(-c4cn[nH]c4)c3)nn2)cc1Cl` [Compound 09, 4-(((1-(3-Chloro-4-isopropoxyphenyl)-1H-1,2,3-triazol-4-yl)methyl)amino)-6-(1H-pyrazol-4-yl)picolinonitrile] showed a solubility at 5 min [1] of over 10 µM, an IC50 (PqsR) of at most 50 nM and an IC50 [2] of 201 to 500 nM.
With `CC(C)Oc1ccc(-c2ncc(CNc3cc(-n4ccnc4)nc(C(F)(F)F)c3)s2)cc1Cl` [Compound 16, N-((2-(3-Chloro-4-isopropoxyphenyl)thiazol-5-yl)methyl)-2-(1H-imidazol-1-yl)-6-(trifluoromethyl)pyridin-4-amine] the half-life at 1 µM [3] was over 1.67 h, the IC50 (PqsR) was 51 to 250 nM and the IC50 [2] was 101 to 200 nM.
Work on `CC(C)Oc1ccc(-c2ncc(CNc3cc(-n4cncn4)nc(C(F)(F)F)c3)s2)cc1Cl` [Compound 18, N-((2-(3-Chloro-4-isopropoxyphenyl)thiazol-5-yl)methyl)-2-(7H-1,2,4-triazol-1-yl)-6-(trifluoromethyl)pyridin-4-amine] yielded a half-life at 1 µM [3] of over 1.67 h, an IC50 (PqsR) of at most 50 nM and an IC50 [2] of at most 100 nM.
With `Cn1cc(-c2cc(SCc3nc4cc(Oc5ccccc5)ccc4[nH]3)cc(C(F)(F)F)n2)cn1` [Compound 65, 2-(((2-(1-Methyl-1H-pyrazol-4-yl)-6-(trifluoromethyl)pyridin-4-yl)thio)methyl)-5-phenoxy-1H-benzo[d]imidazole] the solubility at 5 min [1] was over 10 µM and the IC50 (PqsR) was 51 to 250 nM.
In the case of `FC(F)(F)c1cc(SCc2nc3cc(Oc4ccccc4)ccc3[nH]2)cc(-n2cncn2)n1` [Compound 66, 2-(((2-(1H-1,2,4-Triazol-1-yl)-6-(trifluoromethyl)pyridin-4-yl)thio)methy)-5-phenoxy-1H-benzo[d]imidazole], the solubility at 5 min [1] is reported as over 10 µM, the IC50 (PqsR) is reported as at most 50 nM and the IC50 [2] is reported as 101 to 200 nM.
For `CC(C)Oc1ccc(-n2cc(CNc3cc(-c4cccnc4)nc(C(F)(F)F)c3)nn2)cc1Cl` [Compound 67, N-((1-(3-Chloro-4-isopropoxyphenyl)-1H-1,2,3-triazol-4-yl)methyl)-6-(trifluoromethyl)-[2,3′-bipyridin]-4-amine], the IC50 (PqsR) was 51 to 250 nM.
In the case of `CC(C)Oc1ccc(-c2ncc(CNc3cc(-c4ccc(C#N)nc4)nc(C(F)(F)F)c3)s2)cc1` [Compound 68, 4-(((2-(4-Isopropoxyphenyl)thiazol-5-yl)methyl)amino)-6-(trifluoromethyl)-[2,3′-bipyridine]-6′-carbonitrile], the solubility at 5 min [1] is reported as over 25 µM, the half-life at 1 µM [3] is reported as over 1.67 h and the IC50 [2] is reported as 201 to 500 nM.
